# System: mice with LPS-induced ALI
# Assay type: in vivo
# Procedure: In a lipopolysaccharide (LPS) mouse model of ALI, LPS administered to the lungs of healthy mice induces rapid recruitment of neutrophils into the lungs.
# Poly-A microspheres were injected into the tail vein of mice with LPS-induced ALI at 30 mg/kg.
# Male BALB/c or C57BL/6J mice were anesthetized with inhaled isoflurane, and given 50 μL of 0.4 mg/mL LPS orotracheally to induce lung inflammation. Particles (2×10^8 in 100 μL PBS per mouse) were injected at either 2 hrs or 6 hrs post-instillation via tail vein catheter. Methods of euthanasia and sample processing are shared with the P. Aeruginosa model (below) except instead of cytospin BALF, cells were stained with CD45, CD11b, and Ly6G, and were fixed overnight before flow cytometry to determine the % of neutrophils and macrophages in each sample.
smiles,measurement,setting,value
CC(=O)Oc1ccccc1C(=O)O [aspirin],BALF concentration of KC,LPS-ALI mice,not
same,BALF concentration of MIP2,LPS-ALI mice,not
same,BALF neutrophil count compared to ALI mice with no particles,"tail vein injection 1 hr after LPS, Poly-A 30 mg/kg, aspirin in DMSO",did not reduce
